Values joined by “and” are separate entries in the source; they are usually repeats but may differ in a detail not shown here. Equal values may be shown once. Toxic doses and inconclusive results are not listed. Rule as the data show it: active = T/C of 150% or more; inactive = T/C below 125%.
Tested on: L1210 leukemia ip in BDF1 mice, survival T/C
Test: NCI In Vivo Anticancer Drug Screen. Data for tumor model L1210 Leukemia (intraperitoneal) in B6D2F1 (BDF1) mice
Conditions: endpoint: mean survival time, higher = longer survival
Procedure, shortened: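 Survival endpoint. Drug-treated group vs vehicle group, expressed as T divided by C. Tumor passaged by transplantation.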

[1] = dose: 50.0 mg/kg/injection, schedule: Q01DX009 (ip), vehicle: saline with Tween-80
[2] = dose: 100.0 mg/kg/injection, schedule: Q01DX009 (ip), vehicle: saline with Tween-80
[3] = dose: 100.0 mg/kg/injection, schedule: Q01DX009 (ip), vehicle: Klucel (hydroxypropylcellulose) (HPC)
[4] = dose: 100.0 mg/kg/injection, schedule: Q04DX002 (ip), vehicle: Klucel (hydroxypropylcellulose) (HPC)
[5] = dose: 200.0 mg/kg/injection, schedule: Q01DX009 (ip), vehicle: Klucel (hydroxypropylcellulose) (HPC)
[6] = dose: 200.0 mg/kg/injection, schedule: Q04DX002 (ip), vehicle: Klucel (hydroxypropylcellulose) (HPC)
[7] = dose: 400.0 mg/kg/injection, schedule: Q04DX002 (ip), vehicle: Klucel (hydroxypropylcellulose) (HPC)
[8] = dose: 12.5 mg/kg/injection, schedule: Q01DX009 (ip), vehicle: saline with Tween-80
[9] = dose: 25.0 mg/kg/injection, schedule: Q04DX003 (ip), vehicle: Klucel (hydroxypropylcellulose) (HPC)
[10] = dose: 50.0 mg/kg/injection, schedule: Q04DX003 (ip), vehicle: Klucel (hydroxypropylcellulose) (HPC)
[11] = dose: 100.0 mg/kg/injection, schedule: Q01DX009 (ip), vehicle: saline
[12] = dose: 100.0 mg/kg/injection, schedule: Q04DX003 (ip), vehicle: saline
[13] = dose: 200.0 mg/kg/injection, schedule: Q01DX009 (ip), vehicle: saline
[14] = dose: 200.0 mg/kg/injection, schedule: Q04DX003 (ip), vehicle: saline
[15] = dose: 400.0 mg/kg/injection, schedule: Q01DX009 (ip), vehicle: saline
[16] = dose: 400.0 mg/kg/injection, schedule: Q04DX003 (ip), vehicle: saline
[17] = dose: 75.0 mg/kg/injection, schedule: Q01DX001 (ip), vehicle: acetone
[18] = dose: 150.0 mg/kg/injection, schedule: Q01DX001 (ip), vehicle: acetone
[19] = dose: 400.0 mg/kg/injection, schedule: Q01DX009 (ip), vehicle: Klucel (hydroxypropylcellulose) (HPC)

Measured: T/C

COc1cc2c(c(OC)c1OC)-c1ccc(OC)c(=O)cc1[C@@H](NC=O)CC2
inactive: dose: 0.35 mg/kg/injection, schedule: Q01DX015 (ip), vehicle: carboxymethylcellulose (CMC) 118 % of control | dose: 0.5 mg/kg/injection, schedule: Q01DX009 (ip), vehicle: Klucel (hydroxypropylcellulose) (HPC) 122 % of control | dose: 0.7 mg/kg/injection, schedule: Q01DX015 (ip), vehicle: carboxymethylcellulose (CMC) 112 % of control | dose: 3.0 mg/kg/injection, schedule: Q01DX015 (ip), vehicle: carboxymethylcellulose (CMC) 90 % of control

CC1Oc2ccccc2-c2c(-c3ccccc3)nnc(-c3ccccc3)c21 (configuration not stated)
inactive: dose: 100.0 mg/kg/injection, schedule: Q04DX003 (ip), vehicle: gum acacia 95 % of control | dose: 200.0 mg/kg/injection, schedule: Q04DX003 (ip), vehicle: gum acacia 102 % of control | dose: 400.0 mg/kg/injection, schedule: Q04DX003 (ip), vehicle: gum acacia 98 % of control

CCOC(=O)C1CC(Cl)c2c(ccc3cc(OC)ccc23)N1 (configuration not stated)
inactive: dose: 25.0 mg/kg/injection, schedule: Q01DX001 (ip), vehicle: carboxymethylcellulose (CMC) 100 % of control | dose: 25.0 mg/kg/injection, schedule: Q01DX009 (ip), vehicle: carboxymethylcellulose (CMC) 98 % of control and 92 % of control | dose: 25.0 mg/kg/injection, schedule: Q04DX002 (ip), vehicle: carboxymethylcellulose (CMC) 93 % of control and 95 % of control | dose: 25.0 mg/kg/injection, schedule: Q04DX003 (ip), vehicle: carboxymethylcellulose (CMC) 97 % of control | dose: 50.0 mg/kg/injection, schedule: Q01DX001 (ip), vehicle: carboxymethylcellulose (CMC) 107 % of control | dose: 50.0 mg/kg/injection, schedule: Q01DX009 (ip), vehicle: carboxymethylcellulose (CMC) 100 % of control and 91 % of control | dose: 50.0 mg/kg/injection, schedule: Q04DX002 (ip), vehicle: carboxymethylcellulose (CMC) 101 % of control and 103 % of control | dose: 50.0 mg/kg/injection, schedule: Q04DX003 (ip), vehicle: carboxymethylcellulose (CMC) 95 % of control | dose: 100.0 mg/kg/injection, schedule: Q01DX009 (ip), vehicle: carboxymethylcellulose (CMC) 93 % of control | dose: 100.0 mg/kg/injection, schedule: Q04DX002 (ip), vehicle: carboxymethylcellulose (CMC) 95 % of control and 108 % of control | dose: 100.0 mg/kg/injection, schedule: Q04DX003 (ip), vehicle: carboxymethylcellulose (CMC) 95 % of control

O=C(c1ccccc1)N(c1ccccc1)c1cccc(Cl)n1
inactive: [1] 93 % of control | [2] 93 % of control | dose: 200.0 mg/kg/injection, schedule: Q01DX009 (ip), vehicle: saline with Tween-80 90 % of control

CC(C)(C)c1cc(/C=N/n2c(-c3ccccc3)nc3ccccc3c2=O)cc(C(C)(C)C)c1O
inactive: dose: 100.0 mg/kg/injection, schedule: Q01DX001 (ip), vehicle: Klucel (hydroxypropylcellulose) (HPC) 89 % of control | [3] 89 % of control and 91 % of control | [4] 95 % of control | dose: 200.0 mg/kg/injection, schedule: Q01DX001 (ip), vehicle: Klucel (hydroxypropylcellulose) (HPC) 89 % of control | [5] 95 % of control and 91 % of control | [6] 98 % of control | dose: 400.0 mg/kg/injection, schedule: Q01DX001 (ip), vehicle: Klucel (hydroxypropylcellulose) (HPC) 93 % of control | [7] 97 % of control and 100 % of control

O=C(O)CCCCCNC(=O)C(F)(F)F
inactive: dose: 100.0 mg/kg/injection, schedule: Q04DX003 (ip), vehicle: other 94 % of control | dose: 200.0 mg/kg/injection, schedule: Q04DX003 (ip), vehicle: other 103 % of control | dose: 400.0 mg/kg/injection, schedule: Q04DX003 (ip), vehicle: other 87 % of control

CC(=O)[O][Hg][c]1cc(-c2ccc(N=Nc3c(S(=O)(=O)O)cc4cccc(N)c4c3O)cc2)ccc1N=Nc1c(S(=O)(=O)O)cc2cccc(N)c2c1O
inactive: dose: 3.13 mg/kg/injection, schedule: Q01DX009 (ip), vehicle: saline with Tween-80 86 % of control | dose: 6.25 mg/kg/injection, schedule: Q01DX009 (ip), vehicle: saline with Tween-80 86 % of control | [8] 92 % of control

COC(=O)C(Cc1[nH]cnc1N=Nc1ccc(Br)cc1)NC(C)=O (configuration not stated)
inactive: dose: 100.0 mg/kg/injection, schedule: Q01DX001 (ip), vehicle: saline with Tween-80 107 % of control | dose: 200.0 mg/kg/injection, schedule: Q01DX001 (ip), vehicle: saline with Tween-80 96 % of control | dose: 400.0 mg/kg/injection, schedule: Q01DX001 (ip), vehicle: saline with Tween-80 96 % of control

CC(=O)OC1=CCC(C(C)(C)C)CC1 (configuration not stated)
inactive: dose: 12.5 mg/kg/injection, schedule: Q01DX009 (ip), vehicle: Klucel (hydroxypropylcellulose) (HPC) 107 % of control | dose: 12.5 mg/kg/injection, schedule: Q04DX003 (ip), vehicle: Klucel (hydroxypropylcellulose) (HPC) 96 % of control | dose: 25.0 mg/kg/injection, schedule: Q01DX009 (ip), vehicle: Klucel (hydroxypropylcellulose) (HPC) 93 % of control | [9] 102 % of control | [10] 106 % of control

COc1cc2c(c(OC)c1OC)-c1ccc(O)c(=O)cc1[C@@H](NC(C)=O)CC2
inactive: dose: 75.0 mg/kg/injection, schedule: Q01DX001 (ip), vehicle: other 90 % of control | dose: 150.0 mg/kg/injection, schedule: Q01DX001 (ip), vehicle: other 119 % of control

CCCCCCCCCCCCCCCCN(C)c1ccc(C=O)cc1
inactive: [11] 97 % of control | [12] 104 % of control | [13] 100 % of control | [14] 98 % of control | [15] 103 % of control | [16] 105 % of control

O=C(O)C(O)c1cccc(Cl)c1 (configuration not stated)
inactive: [17] 94 % of control | [18] 94 % of control

CCCCSCC(N)CO (configuration not stated)
inactive: [12] 101 % of control | [14] 101 % of control

Nc1ccc(N=Nc2ccccc2)c(N)c1
inactive: [11] 95 % of control | [13] 101 % of control | [15] 95 % of control

CCOC(=O)NNC(=O)OCC
inactive: [8] 100 % of control | dose: 25.0 mg/kg/injection, schedule: Q01DX009 (ip), vehicle: saline with Tween-80 97 % of control | [9] 97 % of control | [1] 96 % of control and 86 % of control | [10] 98 % of control | [17] 97 % of control | [2] 92 % of control | dose: 100.0 mg/kg/injection, schedule: Q04DX003 (ip), vehicle: Klucel (hydroxypropylcellulose) (HPC) 91 % of control | [18] 108 % of control

O=C(Nc1cc(C(F)(F)F)ccc1Cl)c1ccccc1
inactive: [3] 90 % of control | [12] 117 % of control | [5] 108 % of control | [14] 101 % of control | [19] 111 % of control | [16] 103 % of control

Nc1ccc(N=Nc2ccc(O)cc2)c(N)n1
inactive: dose: 100.0 mg/kg/injection, schedule: Q01DX001 (ip), vehicle: saline 92 % of control | dose: 200.0 mg/kg/injection, schedule: Q01DX001 (ip), vehicle: saline 107 % of control

COc1ccc(Cl)cc1NC(=O)Nc1ccc(F)c([N+](=O)[O-])c1
inactive: [3] 106 % of control | [5] 104 % of control | [19] 102 % of control

FC(F)(F)c1ccc2c(c1)N(CCCN1CCN(CCCl)CC1)c1ccccc1S2
inactive: dose: 0.78 mg/kg/injection, schedule: Q01DX009 (ip), vehicle: saline 101 % of control | dose: 1.56 mg/kg/injection, schedule: Q01DX009 (ip), vehicle: saline 107 % of control | dose: 3.12 mg/kg/injection, schedule: Q01DX009 (ip), vehicle: saline 107 % of control | dose: 6.25 mg/kg/injection, schedule: Q04DX003 (ip), vehicle: saline 96 % of control | dose: 12.5 mg/kg/injection, schedule: Q01DX009 (ip), vehicle: saline 110 % of control | dose: 12.5 mg/kg/injection, schedule: Q04DX003 (ip), vehicle: saline 97 % of control | dose: 25.0 mg/kg/injection, schedule: Q04DX003 (ip), vehicle: saline 110 % of control | dose: 50.0 mg/kg/injection, schedule: Q04DX003 (ip), vehicle: saline 89 % of control

Cc1cccc(Cl)c1NC(=O)Oc1ccccc1C(N)=O
inactive: [3] 92 % of control | [4] 95 % of control | [5] 100 % of control | [6] 100 % of control | [19] 105 % of control | [7] 100 % of control

Reference: PubChem BioAssay AID248 (DTP/NCI, 2004)
